Data as given in US7053069B2, “Pharmaceutical compositions and methods of using C-21 modified epothilone derivatives” (Bristol-Myers Squibb Company, priority 2002, dated 2006).

How the values were obtained:
[1] = Stability of aqueous solution, time for 5% drug loss (t95); format: physicochemical; details: 37° C.
Text: Administering one or more epothilones of formula I, Ia, Ib or Ic, or a pharmaceutically acceptable salt, solvate, clathrate, hydrate, or prodrug thereof, in combination with a pharmaceutically acceptable acid neutralizing buffer provides increased bioavailability of the one or more epothilones of formula I, Ia, Ib or Ic. Without being limited by theory, it is believed that the increased bioavailability is due, at least in significant part, to the buffer decreasing the rate of decomposition of the epothilones of formula I, Ia, Ib or Ic, or a pharmaceutically acceptable salt, solvate, clathrate, hydrate, or prodrug thereof, in the acidic environment of the stomach. Certain epothilones, including the epothilone of formula Ic, are unstable in acidic aqueous environments and decompose, presumably by an acid catalyzed hydrolytic opening of the epoxide ring. For example, the time for 5% drug loss (t95) at 37° C. for an aqueous solution of Compound A (epothilone of formula Ic) is approximately 14 h at pH 7, but <0.2 hours at pH 2.5. Thus, when epothilones of formula I, Ia, Ib or Ic, or a pharmaceutically acceptable salt, solvate, clathrate, hydrate, or prodrug thereof, are orally administered they decompose in the stomach of the patient such that they are either minimally absorbed or not absorbed by the gastrointestinal tract.

[2] = Degradation of drug during solution preparation and lyophilization; format: physicochemical; details: dissolution at about 5° C., pH 6.0, lyophilization at −15° C. 34 hours, drying at 25° C. 24 hours
Protocol: [1S-[1R*,3R*(E),7R*,10S*,11R*,12R*,16S*]]-3-[2-[2-(Aminomethyl)-4-thiazolyl]-1-methylethenyl]-7,11-dihydroxy-8,8,10,12,16-pentamethyl-4,17-dioxabicyclo[14.1.0]heptadecane-5,9-dione (compound of formula Ic) (8.7 g) was dissolved in 1280 mL of an aqueous solution of citric acid (10.1 grams) and dextran 40 (80 grams) which had been pre-cooled to about 5° C. Once the drug powder had become completely dissolved, the solution pH was adjusted to 6.0 and Water for Injection (178 mL) was added.
The solution formed above was promptly lyophilized in a Virtis Genesis(TM) lyophilizer at −15° C. with exclusion of light over a period of 34 hours. The resultant lyophile was then further dried at 25° C. under high vacuum for 24 hours. […] The lyophile was packaged under clean conditions into 15 mL vials, each containing 10 mg of drug plus a 10% excess to allow for transfer and dispensing (vial/needle/syringe, VNS) losses.

[3] = Aqueous solubility / formulation without surfactants; format: physicochemical
Protocol: The epothilones of formula Ic may be formulated without the use of surfactants to a concentration of about at least 20 mg/mL with pH adjustment. If formulations containing a surfactant are desired, the lyophilized epothilone analogs represented by formula I, Ia, Ib and Ic are reconstituted with a mixture of equal parts by volume of Dehydrated Alcohol, USP and a nonionic surfactant, preferably a polyoxyethylated castor oil surfactant (available from GAF Corporation, Mount Olive, N.J., under the trademark, Cremophor EL). Alternately, an oral suspension can be prepared by pH adjustment and the use of a stabilizer, surfactant, and/or viscosity enhancing agent, and may be administered alone or with water or with a pharmaceutically acceptable acid neutralizing buffer.

[4] = tested on: taxane-sensitive and taxane-resistant tumor models; assay: Anticancer activity in tumor models
[5] = Clinical pharmacokinetics, 15-minute infusion once every three weeks; format: in vivo, human
Protocol: (§1) Compound A was administered to human patients once every three (3) weeks as a 15-minute infusion, using an accelerated followed by modified Fibonacci dose escalation design. Twenty-two (22) patients were treated at does levels of 0.6, 1.2, 2.5, 5, 10, 20, 30 and 40 mg/m^2.

[6] = Clinical toxicity in dose escalation study; format: in vivo; details: human patients
Protocol: as §1

[7] = human, 30 mg/m^2, cycle 1, mean, n=7
[8] = plasma, intravenous, 30 mg/m2, human, 30 mg/m^2, cycle 1, mean, n=7

C/C(=C\c1csc(CN)n1)[C@@H]1C[C@@H]2O[C@]2(C)CCC[C@H](C)[C@H](O)[C@@H](C)C(=O)C(C)(C)[C@@H](O)CC(=O)O1 [Compound A, [1S-[1R*,3R*(E),7R*,10S*,11R*,12R*,16S*]]-3-[2-[2-(aminomethyl)-4-thiazolyl]-1-methylethenyl]-7,11-dihydroxy-8,8,10,12,16-pentamethyl-4,17-dioxabicyclo[14.1.0]heptadecane-5,9-dione]
time for 5% drug loss (t95) ([1]; pH 2.5): < 0.2 h
time for 5% drug loss (t95) ([1]; pH 7): approximately 14 h
degradation of the drug [2]: No detectable degradation
aqueous solubility [3]: water soluble
concentration formulated without surfactants ([3]; with pH adjustment): at least 20 mg/mL
anticancer activity [4]: demonstrated anticancer activity
time plasma concentrations near or above the preclinically determined effective concentration (MEC) ([5]; four of the seven patients in the 30 mg/m2 cohort): about 8 hours
increases in AUC and CMAX ([5]; human patients, 0.6 to 40 mg/m^2, preliminary pharmacokinetics): dose-related
C1t [5, 7]: 282 mL/min/m^2
Vss [5, 7]: 494 L/m^2
AUC [5, 8]: 2100 ng·h/mL
Cmax [5, 8]: 3430 ng/mL
half-life [5, 8]: 33 h
related toxicities [6]: diarrhea, nausea, vomitting, anorexia, fatigue, anemia, alopecia, neuropathy, myalgia and neutropenia
dose-limiting toxicity (DLT) ([6]; 0.6 to 40 mg/m^2): No dose-limiting toxicity (DLT) was observed
